Source: US8293783B2, “Use of artemisinin derivatives for the treatment of asthma and chronic obstructive pulmonary disease (COPD)” (National University of Singapore, priority 2009, dated 2012)

Legend:
[1] = test system: OVA-induced inflammatory cell recruitment in BALB/c mice; experiment: BAL fluid total and differential cell counts in OVA-induced mouse asthma model; format: in vivo
Description: (§1) Female BALB/c mice, 6 to 8 weeks old (Interfauna, East Yorkshire, UK), were sensitized and challenged with OVA as described (24). Artesunate (3, 10, and 30 mg/kg; Sigma, St. Louis, Mo.) or vehicle (6% dimethyl sulfoxide [DMSO]) in 0.1 ml saline was given by intraperitoneal injections 2 hours before each OVA aerosol challenge. Saline aerosol was used as a negative control. Animal experiments were performed according to the Institutional guidelines for Animal Care and Use Committee of the National University of Singapore. Mice were anesthetized 24 hours after the last aerosol challenge and bronchoalveolar lavage (BAL) was performed as described (24). BAL fluid total and differential cell counts, and cytokine and chemokine levels were determined as described (24). Blood was collected by cardiac puncture, and serum levels of total IgE and OVA-specific IgE, IgG1, and IgG2a levels were determined as described (24).

[2] = test system: peripheral blood leukocytes; experiment: Flow cytometric analysis of peripheral blood leukocytes; format: in vivo, mouse; conditions: artesunate-treated vs saline-challenged, OVA-challenged and vehicle control mice; data not shown
Description: BAL fluid was collected 24 hours after the last OVA or saline aerosol challenge, and total and differential cell counts were performed. […] We have conducted flow cytometric analysis of peripheral blood leukocytes obtained from saline challenged, OVA-challenged, vehicle control, and artesunate-treated mice.

[3] = test system: OVA-induced lung tissue eosinophilia and mucus hypersecretion in BALB/c mice; experiment: Histologic analysis of lung tissue (H&E, PAS) in OVA-induced mouse asthma model; format: in vivo; conditions: 30 mg/kg, 24 h after last OVA challenge
Description: Female BALB/c mice, 6 to 8 weeks old (Interfauna, East Yorkshire, UK), were sensitized and challenged with OVA as described (24). Artesunate (3, 10, and 30 mg/kg; Sigma, St. Louis, Mo.) or vehicle (6% dimethyl sulfoxide [DMSO]) in 0.1 ml saline was given by intraperitoneal injections 2 hours before each OVA aerosol challenge. Saline aerosol was used as a negative control. Animal experiments were performed according to the Institutional guidelines for Animal Care and Use Committee of the National University of Singapore. Lungs were fixed in 10% neutral formalin, paraffinized, cut into 5-μm sections, and stained with hematoxylin and eosin (H&E) for examining cell infiltration and with periodic acid-Schiff stain (PAS) for measuring mucus production. Quantitative analysis was performed blinded as described (24). Quantitative analyses of inflammatory cell infiltration and mucus production in lung sections were performed as previously described (24). […] To determine the extent of mucus production, goblet cell hyperplasia in the airway epithelium was quantified blind using a 5-point grading system: 0, no goblet cells; 1, <25%; 2, 25-50%; 3, 50-75%; 4, >75%.

[4] = test system: OVA-induced BAL fluid cytokine and chemokine levels in BALB/c mice; experiment: BAL fluid cytokine and chemokine levels by ELISA in OVA-induced mouse asthma model; format: in vivo
Description: as §1

[5] = test system: OVA-induced serum Ig production in BALB/c mice; experiment: Serum Ig levels by ELISA in OVA-induced mouse asthma model; format: in vivo
Description: as §1

[6] = test system: thoracic lymph node cells; experiment: OVA-specific responses in thoracic lymph node cultures from treated mice; format: cell-based, mouse
Description: (§2) To determine the effects of artesunate on OVA-specific immune responses in lymphocytes, thoracic lymph node cells were prepared as described (24). Cells were exposed to […] OVA for 72 hours. Concanavalin A (Con A, 10 μg/ml) was used as a positive control. Supernatants from parallel triplicate cultures were analyzed for cytokine levels by ELISA. Normal human bronchial epithelial cells were cultured in optimized bronchial epithelial bulletkit medium with supplements (Lonza, Basel, Switzerland). Cells were pretreated with 10 μM artesunate or vehicle (0.01% DMSO) 4 hours before stimulation with […] epidermal growth factor (EGF). Total and nuclear proteins, and mRNA were extracted from cells at specified time intervals.

[7] = test system: OVA-induced AHR in BALB/c mice; experiment: Airway hyperresponsiveness (AHR) to methacholine in mechanically ventilated mice; format: in vivo, mouse; conditions: 30 mg/kg; OVA-challenged mice; methacholine 0.5-8.0 mg/ml
Description: Female BALB/c mice, 6 to 8 weeks old (Interfauna, East Yorkshire, UK), were sensitized and challenged with OVA as described (24). Artesunate (3, 10, and 30 mg/kg; Sigma, St. Louis, Mo.) or vehicle (6% dimethyl sulfoxide [DMSO]) in 0.1 ml saline was given by intraperitoneal injections 2 hours before each OVA aerosol challenge. Saline aerosol was used as a negative control. […] Mice were anesthetized and tracheotomy was performed as described (24). The trachea was intubated with a cannula that was connected to the pneumotach, ventilator and nebulizer. Airway resistance (RI) and dynamic compliance (Cdyn) in response to increasing concentrations of nebulized mechacholine (0.5-8.0 mg/ml) were recorded using a whole-body plethysmograph chamber (Buxco, Sharon, Conn.) as described (24). Results are expressed as a percentage of the respective basal values in response to phosphate-buffered saline (PBS).

[8] = test system: OVA-induced inflammatory gene expression in lung tissues; experiment: Lung mRNA expression of inflammatory genes (RT-PCR); format: in vivo, mouse; conditions: 30 mg/kg pretreatment; OVA-challenged mice
Description: (§3) Female BALB/c mice, 6 to 8 weeks old (Interfauna, East Yorkshire, UK), were sensitized and challenged with OVA as described (24). Artesunate (3, 10, and 30 mg/kg; Sigma, St. Louis, Mo.) or vehicle (6% dimethyl sulfoxide [DMSO]) in 0.1 ml saline was given by intraperitoneal injections 2 hours before each OVA aerosol challenge. Saline aerosol was used as a negative control. Animal experiments were performed according to the Institutional guidelines for Animal Care and Use Committee of the National University of Singapore.
(§4) Lung and cell culture protein lysates ([…] per lane) were separated by 10% SDS-PAGE and immunoblots were developed as described (24). Immunoblots were probed with anti-Akt, anti-phospho-Akt (Ser473), anti-tuberin, anti-phosphotuberin (Ser1462), anti-p70S6K, anti-phospho-p70S6K (Ser389), anti-4E-BP1, anti phospho-4E-BP1 (Ser65), and anti-β-actin antibodies (Cell Signaling Technology, Beverly, Mass.). Proteins were separated by 10% SDSPAGE, probed with anti-Akt, anti-phospho-Akt (Ser473), anti-tuberin, antiphospho-tuberin (Ser1462), anti-p 70S6K, anti-phospho-p70S6K (Ser389), anti-4EBP1, and anti-phospho-4E-BP1 (Ser65), and developed by enhanced chemiluminescence reagent. β-actin was used as an internal control. The experiments were repeated for three times. Primers for inflammatory genes are shown in Table 1 and mRNA expression was analyzed as described (24). Nuclear proteins were analyzed for NF-κB DNA-binding activity using TransAM NF-κB transcription factor assay kit (Active Motif, Carlsbad, Calif.). Total mRNA was extracted using TriZol reagent and the PCR products were separated in a 2% agarose gel visualized under UV light. β-actin was used as an internal control. The experiments were repeated for three times

[9] = test system: PI3K/Akt signaling pathway; experiment: Immunoblotting of PI3K/Akt phosphorylation cascade in lung tissues; format: in vivo, mouse; conditions: 30 mg/kg; OVA-challenged mice; to the basal levels
Description: as §3, §4

p65 NF-κB [10] = experiment: Nuclear p65 NF-κB DNA-binding activity in lung tissues (TransAM ELISA kit); format: in vivo, mouse; conditions: 30 mg/kg; to basal level
Description: as §3
(§5) Lung and cell culture protein lysates ([…] per lane) were separated by 10% SDS-PAGE and immunoblots were developed as described (24). Immunoblots were probed with anti-Akt, anti-phospho-Akt (Ser473), anti-tuberin, anti-phosphotuberin (Ser1462), anti-p70S6K, anti-phospho-p70S6K (Ser389), anti-4E-BP1, anti phospho-4E-BP1 (Ser65), and anti-β-actin antibodies (Cell Signaling Technology, Beverly, Mass.). […] Primers for inflammatory genes are shown in Table 1 and mRNA expression was analyzed as described (24). Nuclear proteins were analyzed for NF-κB DNA-binding activity using TransAM NF-κB transcription factor assay kit (Active Motif, Carlsbad, Calif.). […]

[11] = test system: PI3K/Akt signaling pathway; experiment: Immunoblotting of EGF-stimulated normal human bronchial epithelial cells; format: cell-based; conditions: 10 μM artesunate, pretreated 4 h; EGF 5, 15 and 30 min
Description: as §2, §4

p65 NF-κB [12] = experiment: p65 NF-κB DNA-binding activity in EGF-stimulated normal human bronchial epithelial cells; format: cell-based; conditions: 10 μM artesunate; EGF 30 min
Description: as §2, §5

[13] = test system: normal human bronchial epithelial cells; experiment: Cytokine mRNA expression in EGF-stimulated normal human bronchial epithelial cells; format: cell-based; conditions: 10 μM artesunate; EGF 12 hours
Description: as §2, §4

[14] = test system: PI3K/Akt signaling pathway; experiment: TNF-α-induced signalling in normal human bronchial epithelial cells; format: cell-based
[15] = test system: human rheumatoid arthritis fibroblast-like synoviocytes; conditions: TNF-α-stimulated; cited from earlier work
macrophages = conditions: cited from earlier work
[16] = test system: phosphoinositide 3-kinase (PI3K)/Akt signaling pathway; conditions: cited from earlier work
[17] = 3, 10 and 30 mg/kg i.p. 2 h before each OVA challenge, 24 h after last challenge, dose-dependent, vs DMSO vehicle control
[18] = 3, 10, 30 mg/kg, dose-dependent, to a lesser extent than IL-13 and eotaxin, vs DMSO control
[19] = 3, 10, 30 mg/kg, dose-dependent, vs DMSO control
[20] = mice pretreated with 30 mg/kg, cells cultured 72 h with OVA, vs DMSO

SMILES: C[C@H]1[C@H](OC(=O)CCC(=O)O)O[C@@H]2O[C@@]3(C)CC[C@H]4[C@H](C)CC[C@@H]1[C@@]24OO3 [Artesunate, artesunate]
- eosinophil count in BAL fluid [1, 17]: drastically decreased
- total cell count in BAL fluid [1, 17]: drastically decreased
- lymphocyte count in BAL fluid ([1]; OVA-challenged mice): significant drop
- percentages of CD3+, CD4+, CD8+ T cells, B cells, NK cells, neutrophils and monocytes in peripheral blood [2]: Similar
- OVA-induced mucus hypersecretion (PAS) [3]: significantly halted
- eosinophil-rich leukocyte infiltration in lung tissue (H&E) ([3]; vs DMSO control): markedly diminished
- IL-4 level in BAL fluid [4, 18]: reduced
- IL-5 level in BAL fluid [4, 18]: reduced
- IL-13 level in BAL fluid [4, 19]: drastically reduced
- eotaxin level in BAL fluid [4, 19]: drastically reduced
- IFN-γ level in BAL fluid ([4]; 10 and 30 mg/kg): up-regulated
- serum total IgE level ([5]; 24 h after last OVA aerosol challenge): no effect
- serum OVA-specific IgG2a level ([5]; OVA-challenged mice): no effects
- serum OVA-specific IgE level ([5]; even at the lowest dose (3 mg/kg)): strongly suppressed
- serum OVA-specific IgG1 level ([5]; suppressed to a lesser extent than OVA-specific IgE): significant effects at higher dose
- in vitro OVA-specific IL-4 production [6, 20]: significantly (P<0.05) lowered
- in vitro OVA-specific IL-5 production [6, 20]: significantly (P<0.05) lowered
- in vitro OVA-specific IL-13 production [6, 20]: significantly (P<0.05) lowered
- in vitro OVA-specific IFN-γ production ([6]; mice treated with 30 mg/kg, cells cultured 72 h with OVA): elevated
- Con A-induced production of IL-4, IL-5, IL-13 and IFN-γ ([6]; parallel cultures, Con A 10 μg/ml, data not shown): not affected
- dynamic compliance (Cdyn) in response to methacholine aerosol [7]: restored
- lung/airway resistance (RI) in response to methacholine aerosol [7]: dramatically reduced
- lung AMCase mRNA level [8]: strong suppression
- lung E-selectin mRNA level [8]: strong suppression
- lung ICAM-1 mRNA level [8]: strong suppression
- lung IL-17 mRNA level [8]: strong suppression
- lung IL-33 mRNA level [8]: strong suppression
- lung Muc5ac mRNA level [8]: strong suppression
- lung TSLP mRNA level [8]: strong suppression
- lung VCAM-1 mRNA level [8]: strong suppression
- lung YKL-40 mRNA level [8]: strong suppression
- lung Ym-2 mRNA level [8]: strong suppression
- lung iNOS mRNA level [8]: strong suppression
- phosphorylation of 4E-BP1 in lung tissues [9]: markedly reduced
- phosphorylation of Akt in lung tissues [9]: markedly reduced
- phosphorylation of p70S6K in lung tissues [9]: markedly reduced
- phosphorylation of tuberin in lung tissues [9]: markedly reduced
- OVA-induced NF-κB transactivation (p65 DNA-binding) in lung tissues (p65 NF-κB [10]): significantly suppressed
- EGF-induced phosphorylation of 4E-BP1 [11]: markedly inhibited
- EGF-induced phosphorylation of Akt [11]: markedly inhibited
- EGF-induced phosphorylation of p70S6K [11]: markedly inhibited
- EGF-induced phosphorylation of tuberin [11]: markedly inhibited
- EGF-induced NF-κB transactivation (DNA binding activity) (p65 NF-κB [12]): markedly inhibited
- EGF-induced up-regulation of IL-6 mRNA expression [13]: noticeably blocked
- EGF-induced up-regulation of IL-8 mRNA expression [13]: noticeably blocked
- EGF-induced up-regulation of MCP-1 mRNA expression [13]: noticeably blocked
- EGF-induced up-regulation of RANTES mRNA expression [13]: noticeably blocked
- TNF-α-induced NF-κB DNA binding activity [14]: inhibited
- TNF-α-induced phosphorylation of Akt [14]: inhibited
- TNF-α-induced phosphorylation of p70 S6 kinase [14]: inhibited
- TNF-α-induced phosphorylation of phosphoinositide 3-kinase (PI3K) [14]: inhibited
- production of IL-1β [15]: block
- production of IL-6 [15]: block
- production of IL-8 [15]: block
- lipopolysaccharide-induced production of IL-6 (macrophages): inhibits
- lipopolysaccharide-induced production of TNF-α (macrophages): inhibits
- lipopolysaccharide-induced production of nitric oxide (NO) (macrophages): inhibits
- expression of TLR9 (macrophages; lipopolysaccharide-induced): inhibits
- expression of toll-like receptor 4 (TLR4) (macrophages; lipopolysaccharide-induced): inhibits
- activity against the PI3K/Akt signaling pathway [16]: strong inhibitory activity
